# Laboratory results: patent publication US10118954B2, “Apelin analogues” (University of Ulster, priority 2014, dated 2018)
# Columns and labels:
# [1] = Degradation of apelin peptides by plasma from fasted normal NIH Swiss mice (rp-HPLC, MALDI-TOF MS); assay type: in vitro ADME
# Description: Degradation of Apelin Peptides by Plasma from Fasted Normal NIH Swiss Mice […] The enzymatic reaction was stopped by adding 50 μl of 10% TFA (0.1% v/v; Sigma-Aldrich Ltd, (Poole, Dorset, UK) and frozen at -20° C. until separation. The terminated reaction products were then applied to an analytical Vydac C-8 column (4.6×150 mm; Phenomenex, Macclesfield, Cheshire, UK) for rp-HPLC analysis. The absorbance was monitored at 214 nm using a […] UV 2000 detector (Thermoquest Limited, Manchester, UK) and the traces were recorded by Thermo Electron ChromQuest data collection software (version 4). HPLC peak fractions were collected manually and subjected to MALDI-TOF mass spectrometry for peptide identification. Degradation profile of various apelin-13 related analogues: plasma incubations (4 h) were separated on a Vydac C-8 analytical HPLC column and all peaks were collected prior to analysis by MALDI-TOF mass spectrometry. Degradation fragments, actual molecular weights (Mr) and retention times (RT) are shown. Theoretical molecular weights of each fragment are shown in brackets. […] Degradation fragments, theoretical molecular weights (Mr) and retention times (RT) are shown. Theoretical molecular weights of each fragment are shown in brackets.
# [2] = test system: high fat fed NIH Swiss mice; assay: 28 day long-term study, twice daily i.p. administration; assay type: in vivo
# From the text: NIH Swiss mice (Harlan UK Ltd., Blackthorne, UK) were derived from a nucleus colony obtained from the National Institute of Health, Bethesda, Md., USA. One group of mice were maintained on a standard rodent diet (10% fat, 30% protein, 60% carbohydrate; percent of total energy 12.99 kJ/g, Trouw Nutrition, Cheshire, UK) and used as a model of normal glycaemia. Other NIH Swiss mice were maintained on a high fat diet (45% fat, 20% protein, 35% carbohydrate; percent of total energy 26.15 […], UK) from 8 weeks of age for 150 days to produce a model of diet induced obesity-diabetes. […] Drinking water and diet were freely available. All animal studies were performed in accordance with the UK Animals (Scientific Procedures) Act 1986. […] Following the run-in period, normal control (n=8) and high-fat fed mice (n=8) received twice daily (09:00 and 17:00 h) i.p. administration of saline vehicle (0.9% NaCl (w/v)) for 28 days. […] Blood samples for glucose and plasma insulin measurement were collected at intervals throughout the study from the cut tail vein of conscious mice. […] Glucose was measured using an Ascensia Contour meter and blood was collected and processed for plasma insulin analysis by radioimmunoassay. Body weight and fat mass was also assessed using the PIXImus DEXA scanner whilst energy expenditure, intake, food intake and feeding bouts were assessed using the CLAMS metabolic chamber. HbA1c was analysed post 28 days using Bayer A1C Now^+ Multi Test meter. Lipid profile test was obtained by using the iLab analyser. Cholesterol, triglyceride and HDL-cholesterol levels were measured, in plasma (3 μl), using the iLab analyser. LDL-cholesterol levels were obtained using the Friedewald equation=total cholesterol-HDL-(triglycerides/3).
# [3] = test system: NIH Swiss mice fed a high-fat diet for 150 days; assay: Acute and delayed i.p. glucose tolerance test, blood glucose and plasma insulin; assay type: in vivo
# Description: Plasma glucose and plasma insulin concentrations were measured prior to and after i.p. administration of glucose alone (18 mmol/kg body weight), or in combination with apelin analogues (25 nmol/kg body weight) in 18 h fasted mice fed a high-fat diet for 150 days. Values represent mean±SEM for eight mice (n=8). *P<0.05, **P<0.01 and ***P<0.001 compared to glucose alone. FIG. 6 illustrates effect of i.p. administration of glucose alone (18 mmol/kg body weight), ([…])apelin-13 and ([…])apelin-13 alone or in combination (each 25 nmol/kg body weight) on (A) blood glucose and (B) plasma insulin in 18 h fasted mice fed a high-fat diet for 150 days. Values represent mean±SEM for eight mice (n=8). *p<0.05 and **p<0.01 compared to glucose alone, ^+P<0.05 compared to ([…])apelin-13, ^∇P<0.05 and ^∇∇P<0.01 compared to ([…])apelin-13. FIG. 10 illustrates tests conducted 2 h after administration of apelin related analogues (25 nmol/kg body wt) in 18 h fasted mice fed a high-fat diet for 150 days. (A) Blood glucose and (B) plasma insulin was measured before and after i.p. administration of glucose (18 mmol/kg body wt) alone or in combination with apelin analogues. Values represent mean±SEM for eight mice (n=8). *P<0.05 and **P<0.01 compared to glucose alone. FIG. 11 illustrates tests conducted 8 h after administration of apelin related analogues (25 nmol/kg body wt) in 18 h fasted mice fed a high-fat diet for 150 days. (A) Blood glucose and (B) plasma insulin was measured before and after i.p. administration of glucose (18 mmol/kg body wt) alone or in combination with apelin analogues. Values represent mean±SEM for eight mice (n=8). *P<0.05 and **P<0.01 compared to glucose alone. FIG. 12 illustrates acute effects of fatty acid modified apelin analogues on glucose-lowering and insulin release in high fat fed Swiss NIH mice with dietary-induced diabetes. (A) Blood glucose and (B) plasma insulin concentrations were measured prior to and after i.p. administration of glucose alone (18 mmol/kg body weight), or in combination with apelin analogues (25 nmol/kg body weight) in 18 h fasted mice fed a high-fat diet for 150 days. Values represent mean±SEM for eight mice (n=8). *P<0.05, compared to glucose alone. FIG. 13 illustrates tests conducted 16 h after administration of fatty acid apelin analogues (25 nmol/kg body wt) in mice fed a high-fat diet for 150 days. (A) Blood glucose and (B) plasma insulin was measured before and after i.p. administration of glucose (18 mmol/kg body wt) alone or in combination with apelin analogues. Values represent mean±SEM for eight mice (n=8). *P<0.05, **P<0.01 and ***P<0.001 compared to glucose alone. NIH Swiss mice (Harlan UK Ltd., Blackthorne, UK) were derived from a nucleus colony obtained from the National Institute of Health, Bethesda, Md., USA. One group of mice were maintained on a standard rodent diet (10% fat, 30% protein, 60% carbohydrate; percent of total energy 12.99 kJ/g, Trouw Nutrition, Cheshire, UK) and used as a model of normal glycaemia. Other NIH Swiss mice were maintained on a high fat diet (45% fat, 20% protein, 35% carbohydrate; percent of total energy 26.15 […], UK) from 8 weeks of age for 150 days to produce a model of diet induced obesity-diabetes. […] All mice were housed in an air-conditioned room maintained at 22±2° C. with a 12 h light: 12 h dark cycle (08:00-20:00 h), were singly caged, and selected for experimental groups according to body weight and non-fasted blood glucose. Drinking water and diet were freely available. All animal studies were performed in accordance with the UK Animals (Scientific Procedures) Act 1986. For acute in vivo studies, blood samples were collected from the cut tip of the tail vain of fasted, conscious mice into fluoride/heparin coated glucose microcentrifuge tubes (Sarstedt, Germany) immediately prior to (t=0) and at 15, 30, 60 and 105 min following i.p. injection of glucose ([…]).
# [4] = test system: high fat fed NIH Swiss mice; assay: 28 day long-term study of fatty acid apelin analogues, once daily i.p. administration; assay type: in vivo
# From the text: NIH Swiss mice (Harlan UK Ltd., Blackthorne, UK) were derived from a nucleus colony obtained from the National Institute of Health, Bethesda, Md., USA. One group of mice were maintained on a standard rodent diet (10% fat, 30% protein, 60% carbohydrate; percent of total energy 12.99 kJ/g, Trouw Nutrition, Cheshire, UK) and used as a model of normal glycaemia. Other NIH Swiss mice were maintained on a high fat diet (45% fat, 20% protein, 35% carbohydrate; percent of total energy 26.15 kJ/g; Dietex, Essex, UK) from 8 weeks of age for 150 days to produce a model of diet induced obesity-diabetes. […] All mice were housed in an air-conditioned room maintained at 22±2° C. with a 12 h light: 12 h dark cycle (08:00-20:00 h), were singly caged, and selected for experimental groups according to body weight and non-fasted blood glucose. Drinking water and diet were freely available. All animal studies were performed in accordance with the UK Animals (Scientific Procedures) Act 1986.
# For another 28 day long-term study of selected fatty acid apelin analogues administered once daily, normal control NIH Swiss (n=8) and high-fat fed NIH Swiss (n=8) were grouped and received once daily i.p. injections of saline vehicle (0.9% NaCl (w/v)) at 17:00 h over a 4 day run-in period. Following the run-in period, normal control (n=8) and high-fat fed mice (n=8) received once daily (17:00 h) i.p. administration of saline vehicle (0.9% NaCl (w/v)) for 28 days. Additional groups of high-fat fed mice (n=8) received once daily i.p. injections of (Lys^8gluPal)apelin-13-amide, pGlu(Lys^8gluPal)apelin-13-amide or liraglutide (each at 25 nmol/kg bw) over a 28 day treatment period.
# Food intake, body weight, blood glucose and plasma insulin were monitored at intervals of 2-3 days throughout the run-in and 28 day treatment period. Blood samples for glucose and plasma insulin measurement were collected at intervals throughout the study from the cut tail vein of conscious mice. Following the 28 day treatment period, oral, i.p. and meal test glucose tolerance ([…].), and insulin sensitivity (25 U/kg bw) tests were performed. Glucose was measured using an Ascensia Contour meter and blood was collected and processed for plasma insulin analysis by radioimmunoassay. Body weight and fat mass was also assessed using the PIXImus DEXA scanner whilst energy expenditure, intake, food intake and feeding bouts were assessed using the CLAMS metabolic chamber. HbA1c was analysed post 28 days using Bayer A1C Now^+ Multi Test meter. Lipid profile test was obtained by using the iLab analyser. Cholesterol, triglyceride and HDL-cholesterol levels were measured, in plasma (3 μl), using the iLab analyser. LDL-cholesterol levels were obtained using the Friedewald equation=total cholesterol−HDL−(triglycerides/3).
# [5] = NIH Swiss, mouse, plasma, pH 7.4
# [6] = after 28 days, insulin 25 U/kg bw
# [7] = after the 28 day treatment period
# [8] = twice daily 25 nmol/kg bw, 28 days
# [9] = acute, peptide 25 nmol/kg i.p. with glucose 18 mmol/kg, Table 4
# [10] = following a 2 h delay, 25 nmol/kg
# [11] = following a 8 h delay, 25 nmol/kg
# [12] = once daily 25 nmol/kg bw, 28 days
# [13] = fatty acid derived agonists, 16 h delayed i.p. glucose tolerance test, 25 nmol/kg
# [14] = fatty acid derived agonists, acute i.p. glucose tolerance test, 25 nmol/kg
structure (smiles),measurement,setting,value
CSCC[C@H](NC(=O)[C@@H]1CCCN1C(=O)CNC(=O)[C@H](CCCCN)NC(=O)[C@H](Cc1c[nH]cn1)NC(=O)[C@H](CO)NC(=O)[C@H](CC(C)C)NC(=O)[C@H](CCCNC(=N)N)NC(=O)[C@@H]1CCCN1C(=O)[C@H](CCCNC(=N)N)NC(=O)[C@@H]1CCC(=O)N1)C(=O)N1CCC[C@H]1C(=O)N[C@@H](Cc1ccccc1)C(N)=O [(pGlu)apelin-13-amide],"Degradation fragment, Peak 1",[1],amide (1-5)
same,"Degradation fragment, Peak 2",[1],amide (1-12)
same,Rank order of stability,[1],7
same,half-life at 263 µg/mL,[1]; [5],10.4 h
same,"remaining at 4 h, 263 µg/mL",[1]; [5],85 ± 1.3%
same,Glycated haemoglobin (HbA1c) in comparison to high-fat fed saline treated controls,[2]; after 28 days,reduction
same,Percentage fat mass compared to high-fat fed controls,"[2]; after 28 days, DEXA",significantly reduced
same,Insulin sensitivity,[2]; [6],significantly improved
same,Glucose tolerance and plasma insulin excursion following an i.p. and oral glucose load,[2]; [7],significantly improved
same,Day of study at which bodyweight was significantly decreased,[2]; [8],~20 days
same,Day of study at which circulating blood glucose began to be significantly reduced and plasma insulin increased,[2]; [8],10 days
same,Food intake,[2]; [8],significantly reduced food intake
same,Non-fasting plasma insulin levels,[2]; [8],significant increase
same,Rank order on basis of anti-hyperglycaemic efficacy,"[3]; acute, Table 4",1
same,Blood glucose as percent of glucose-alone control (lower = stronger glucose lowering),[3]; [9],57% (**)
same,"Insulin secretion, where glucose alone = 100%",[3]; [9],159% (***)
same,Rank order on basis of anti-hyperglycaemic efficacy,[3]; following a 2 h delay,1
same,Blood glucose as percent of glucose-alone control (lower = stronger glucose lowering),[3]; [10],67% (**)
same,"Insulin secretion, where glucose alone = 100%",[3]; [10],146% (***)
same,Rank order on basis of anti-hyperglycaemic efficacy,[3]; following a 8 h delay,1
same,Blood glucose as percent of glucose-alone control (lower = stronger glucose lowering),[3]; [11],79% (*)
same,"Insulin secretion, where glucose alone = 100%",[3]; [11],120% (*)
same,Time after injection up to which efficacy is retained,"[3]; glucose lowering, high-fat fed mice",up to 8 h
CCCCCCCCCCCCCCCC(=O)N[C@@H](CCC(=O)NCCCC[C@H](NC(=O)[C@H](Cc1c[nH]cn1)NC(=O)[C@H](CO)NC(=O)[C@H](CC(C)C)NC(=O)[C@H](CCCNC(=N)N)NC(=O)[C@@H]1CCCN1C(=O)[C@H](CCCNC(=N)N)NC(=O)[C@@H](N)CCC(N)=O)C(=O)NCC(=O)N1CCC[C@H]1C(=O)N[C@@H](CCSC)C(=O)N1CCC[C@H]1C(=O)N[C@@H](Cc1ccccc1)C(N)=O)C(=O)O [(Lys^8GluPAL)apelin-13-amide],Percentage fat mass,"[4]; after 28 days, DEXA analysis",30.8%
same,Insulin sensitivity,[4]; [6],significantly improved
same,Glucose tolerance and plasma insulin excursion in response to an i.p and oral glucose challenge,[4]; [7],significantly improved
same,HDL-cholesterol levels compared to the lean control and high fat fed mice,[4]; once daily,significantly increased
same,Bodyweight reduction,[4]; [12],approximately 4%
same,Day of study at which bodyweight was significantly decreased,[4]; [12],21 days
same,Day of study at which circulating blood glucose began to be significantly reduced and plasma insulin increased,[4]; [12],10 days
same,Day of study at which food intake was significantly reduced,[4]; [12],8 days
same,LDL-cholesterol levels compared to the high fat fed controls,"[4]; once daily, Friedewald equation",significantly lowered
same,Plasma triglyceride levels,"[4]; once daily, high-fat fed mice",significantly lower
same,Rank order of stability,[1],=1
same,Half-life (t1/2),"[1]; NIH Swiss, mouse, plasma, 263 µg/mL, pH 7.4",>24 h
same,half-life at 263 µg/mL,[1]; [5],> 24 h
same,"remaining at 4 h, 263 µg/mL",[1]; [5],100%
same,Rank order on basis of anti-hyperglycaemic efficacy,"[3]; fatty acid derived agonists, 16 h delay",2
same,Blood glucose as percent of glucose-alone control (lower = stronger glucose lowering),[3]; [13],61% (**)
same,"Insulin secretion, where glucose alone = 100%",[3]; [13],156% (***)
same,Rank order on basis of anti-hyperglycaemic efficacy,"[3]; fatty acid derived agonists, acute",2
same,"Glucose lowering, where glucose alone = 100%",[3]; [14],85%
same,"Insulin secretion, where glucose alone = 100%",[3]; [14],110%
